Experimental data: US10577308B2, “Sodium channel modulators” (The Florey Institute of Neuroscience and Mental Health, priority 2015, dated 2020)
Like-named read-outs stand apart in the source and are kept apart here.

Experiments:
hNav1.6 = hNav1.6 (Homo sapiens (Human), UniProt Q9UQD0); test: Automated patch clamp (IonWorks Quattro) block of hNav1.6 channels in CHO cells; assay type: cell-based
Excerpt: (§1) FIG. 1 depicts the voltage sequence used to measure inhibitory activity of compounds as described in Example 3. An automated patch clamp screening assay was used to measure the inhibitory effect (potency) of compounds in three conformational states of the sodium channel: (1) the tonic state (TP1); (2) the frequency-dependent (10 Hz) state (TP11) and (3) the inactivated state (TP12).
(§2) Test Protocol for Determining the Potency of Compounds on Nav1.2 and Nav1.6 Subtypes of Voltage-Gated Sodium Ion Channels Expressed in Mammalian Cells
(§3) Cell culture procedures: Chinese hamster ovary (CHO) cells were stably transfected with the cDNA sequence of either the human SCN2A or SCN8A genes to create hNav1.2 or hNav1.6 cells respectively. The cell lines were cultured in Ham's F-12 medium supplemented with 10% fetal bovine serum and antibiotics in a tissue incubator at 37° C. under a humidified air/CO2 mixture (95/5 v/v). On the day of the experiment, cells were washed twice with Hank's balanced salt solution, treated with trypsin, and resuspended in fresh culture media at a density of 4−6×10^6 cells in 20 ml. Immediately before placing in the IonWorks Quattro instrument, cells were washed in Hank's balanced salt solution to remove culture medium and re-suspended in 3 ml of Hank's balanced salt solution.
(§4) Automated patch clamp recordings of cells using the IonWorks Quattro Instrument: The assay used a 384 microwell plate, which enabled 20 compounds to be studied at four different concentrations in quadruplicate as well as allowing a vehicle control group and a positive control group using mexiletine at 8 different concentrations. Cells were added to the wells of the Population Patch Clamp planar electrode using a 48-channel pipettor in a volume of 6 μL, per well. After 5 minutes incubation at ambient temperature with compounds or vehicle, membrane currents were recorded using the patch clamp amplifier. The pulse pattern was repeated twice, before and after compound addition and peak current amplitudes were measured at three test pulses, TP1, TP11 and TP12 to measure Tonic Block, 10 Hz Frequency-dependent Block and Inactivation State Block, respectively.
(§5) Data analysis: Data acquisition and analyses were carried out using the IonWorks Quattro system operation software which uses an algorithm to correct data for leak currents. Concentration-response curves were fitted by non-linear least squares regression allowing calculation of an IC50 value (μM), being the concentration of the compound producing half-maximal inhibition.

hNav1.2 = hNav1.2 (Homo sapiens (Human), UniProt Q99250); test: Automated patch clamp (IonWorks Quattro) block of hNav1.2 channels in CHO cells; assay type: cell-based
Excerpt: as §1, §2, §3, §4, §5

[1] = 10 Hz frequency-dependent block (TP11), read-out: IC50 Nav1.6 10 Hz block
[2] = Inactivated state block (TP12), read-out: IC50 Nav1.6 Inactivated state block
[3] = Tonic block (TP1), read-out: IC50 Nav1.6 Tonic block
[4] = 10 Hz frequency-dependent block (TP11), read-out: IC50 Nav1.2 10 Hz block
[5] = Inactivated state block (TP12), read-out: IC50 Nav1.2 Inactivated state block
[6] = Tonic block (TP1), read-out: IC50 Nav1.2 Tonic block

Chain of hNav1.2 (Q99250 whole entry): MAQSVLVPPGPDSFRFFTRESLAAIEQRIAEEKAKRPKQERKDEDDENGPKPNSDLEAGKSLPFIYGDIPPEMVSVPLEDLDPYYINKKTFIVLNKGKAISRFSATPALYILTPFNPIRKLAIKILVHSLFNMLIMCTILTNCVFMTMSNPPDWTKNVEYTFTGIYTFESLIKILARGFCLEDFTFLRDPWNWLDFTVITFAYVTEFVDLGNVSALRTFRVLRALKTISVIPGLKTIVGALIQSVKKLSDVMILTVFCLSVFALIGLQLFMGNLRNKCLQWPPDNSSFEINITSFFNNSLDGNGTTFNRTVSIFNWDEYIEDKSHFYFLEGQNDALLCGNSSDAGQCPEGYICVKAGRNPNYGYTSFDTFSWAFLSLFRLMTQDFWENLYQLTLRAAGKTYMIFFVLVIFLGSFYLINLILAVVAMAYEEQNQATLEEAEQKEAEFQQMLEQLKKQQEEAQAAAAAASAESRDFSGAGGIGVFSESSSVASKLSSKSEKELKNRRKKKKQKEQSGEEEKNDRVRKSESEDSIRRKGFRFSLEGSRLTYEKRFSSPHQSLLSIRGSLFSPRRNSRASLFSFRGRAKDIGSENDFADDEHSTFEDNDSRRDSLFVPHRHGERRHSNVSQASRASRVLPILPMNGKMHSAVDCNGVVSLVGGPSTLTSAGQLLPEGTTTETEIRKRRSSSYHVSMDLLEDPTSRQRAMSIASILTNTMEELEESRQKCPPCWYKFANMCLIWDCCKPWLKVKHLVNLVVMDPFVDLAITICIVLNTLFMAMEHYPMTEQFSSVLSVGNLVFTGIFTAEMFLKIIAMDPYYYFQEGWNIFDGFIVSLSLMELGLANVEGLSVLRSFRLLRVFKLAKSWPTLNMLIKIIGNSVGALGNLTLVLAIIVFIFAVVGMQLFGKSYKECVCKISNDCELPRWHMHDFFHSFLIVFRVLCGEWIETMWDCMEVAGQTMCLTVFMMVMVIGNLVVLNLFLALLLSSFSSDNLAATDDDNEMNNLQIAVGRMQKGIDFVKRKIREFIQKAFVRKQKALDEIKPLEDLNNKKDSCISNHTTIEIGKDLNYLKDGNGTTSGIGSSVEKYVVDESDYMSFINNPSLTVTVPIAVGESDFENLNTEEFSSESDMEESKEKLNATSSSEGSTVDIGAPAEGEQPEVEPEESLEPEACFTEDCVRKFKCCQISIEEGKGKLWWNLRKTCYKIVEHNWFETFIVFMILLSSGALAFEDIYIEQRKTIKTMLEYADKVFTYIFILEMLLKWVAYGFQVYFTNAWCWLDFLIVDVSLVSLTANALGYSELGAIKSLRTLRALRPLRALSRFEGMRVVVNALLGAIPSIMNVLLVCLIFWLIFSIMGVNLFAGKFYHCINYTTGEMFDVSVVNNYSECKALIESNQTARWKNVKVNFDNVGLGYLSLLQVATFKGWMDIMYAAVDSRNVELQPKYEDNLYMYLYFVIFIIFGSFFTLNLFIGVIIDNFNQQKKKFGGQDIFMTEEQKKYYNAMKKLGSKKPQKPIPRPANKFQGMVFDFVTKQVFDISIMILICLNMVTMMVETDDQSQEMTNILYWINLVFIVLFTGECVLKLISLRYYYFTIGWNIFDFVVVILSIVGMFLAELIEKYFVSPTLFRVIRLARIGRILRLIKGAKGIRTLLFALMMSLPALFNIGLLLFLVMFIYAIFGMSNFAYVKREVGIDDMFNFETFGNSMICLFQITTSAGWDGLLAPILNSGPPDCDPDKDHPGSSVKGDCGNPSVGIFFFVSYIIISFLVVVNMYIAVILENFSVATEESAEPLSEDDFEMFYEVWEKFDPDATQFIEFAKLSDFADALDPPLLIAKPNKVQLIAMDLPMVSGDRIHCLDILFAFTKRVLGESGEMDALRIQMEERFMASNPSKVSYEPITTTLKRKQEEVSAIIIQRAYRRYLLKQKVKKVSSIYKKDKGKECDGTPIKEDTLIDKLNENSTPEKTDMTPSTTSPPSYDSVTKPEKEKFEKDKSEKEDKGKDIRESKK
Chain of hNav1.6 (Q9UQD0 whole entry): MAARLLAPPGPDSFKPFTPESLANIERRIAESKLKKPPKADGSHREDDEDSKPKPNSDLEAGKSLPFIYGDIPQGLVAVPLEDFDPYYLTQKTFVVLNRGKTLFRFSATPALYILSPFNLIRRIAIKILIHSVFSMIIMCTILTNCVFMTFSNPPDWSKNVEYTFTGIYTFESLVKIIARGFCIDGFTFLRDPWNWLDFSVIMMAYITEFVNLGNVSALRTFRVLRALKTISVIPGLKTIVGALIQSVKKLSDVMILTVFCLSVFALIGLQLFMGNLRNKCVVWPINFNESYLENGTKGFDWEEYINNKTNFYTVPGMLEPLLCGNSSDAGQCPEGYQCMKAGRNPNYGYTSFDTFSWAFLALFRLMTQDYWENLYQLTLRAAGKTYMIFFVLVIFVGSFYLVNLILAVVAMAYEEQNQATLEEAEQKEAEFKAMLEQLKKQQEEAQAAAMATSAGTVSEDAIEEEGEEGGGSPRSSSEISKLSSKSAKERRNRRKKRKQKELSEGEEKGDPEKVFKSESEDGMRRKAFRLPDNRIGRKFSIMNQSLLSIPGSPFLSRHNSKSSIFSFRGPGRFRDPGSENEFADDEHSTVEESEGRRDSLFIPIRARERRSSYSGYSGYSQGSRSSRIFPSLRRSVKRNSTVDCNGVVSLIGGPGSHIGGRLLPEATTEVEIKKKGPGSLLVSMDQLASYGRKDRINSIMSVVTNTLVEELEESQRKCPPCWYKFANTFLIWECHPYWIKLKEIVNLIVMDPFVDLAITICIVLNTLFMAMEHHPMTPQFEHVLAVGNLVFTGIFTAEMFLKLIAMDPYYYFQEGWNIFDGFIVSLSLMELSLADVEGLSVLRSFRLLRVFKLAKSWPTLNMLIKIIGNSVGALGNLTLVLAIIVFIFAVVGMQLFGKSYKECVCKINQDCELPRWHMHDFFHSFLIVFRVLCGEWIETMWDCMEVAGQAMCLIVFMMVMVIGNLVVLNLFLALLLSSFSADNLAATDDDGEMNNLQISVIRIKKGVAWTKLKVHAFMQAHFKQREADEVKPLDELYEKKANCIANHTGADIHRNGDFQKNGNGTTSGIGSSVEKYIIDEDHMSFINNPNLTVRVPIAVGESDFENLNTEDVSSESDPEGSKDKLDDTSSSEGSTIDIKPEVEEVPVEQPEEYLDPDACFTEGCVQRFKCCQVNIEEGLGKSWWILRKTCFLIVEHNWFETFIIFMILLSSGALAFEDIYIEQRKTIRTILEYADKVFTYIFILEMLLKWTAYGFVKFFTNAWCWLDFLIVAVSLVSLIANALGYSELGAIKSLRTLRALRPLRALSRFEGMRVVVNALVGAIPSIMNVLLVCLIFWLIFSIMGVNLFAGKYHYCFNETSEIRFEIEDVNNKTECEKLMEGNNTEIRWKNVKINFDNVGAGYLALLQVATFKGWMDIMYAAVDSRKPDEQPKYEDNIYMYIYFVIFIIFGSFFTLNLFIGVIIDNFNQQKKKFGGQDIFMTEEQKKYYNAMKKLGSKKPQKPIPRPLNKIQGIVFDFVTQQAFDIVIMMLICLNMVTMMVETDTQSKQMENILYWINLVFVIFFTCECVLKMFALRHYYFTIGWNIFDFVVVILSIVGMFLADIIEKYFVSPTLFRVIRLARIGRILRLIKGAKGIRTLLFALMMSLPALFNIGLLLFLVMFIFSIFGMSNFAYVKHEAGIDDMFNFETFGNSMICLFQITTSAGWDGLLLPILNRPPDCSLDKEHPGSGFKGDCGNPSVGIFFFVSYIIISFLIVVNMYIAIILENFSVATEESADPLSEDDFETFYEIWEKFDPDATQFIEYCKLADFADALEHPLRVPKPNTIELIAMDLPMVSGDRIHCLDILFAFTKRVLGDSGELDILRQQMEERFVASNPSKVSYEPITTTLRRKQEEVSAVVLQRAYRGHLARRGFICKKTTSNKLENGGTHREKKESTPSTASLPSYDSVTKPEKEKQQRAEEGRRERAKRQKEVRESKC

Row | Compound | IC50 (hNav1.6; [1]) [µM] | IC50 (hNav1.6; [2]) [µM] | IC50 (hNav1.6; [3]) [µM] | IC50 (hNav1.2; [4]) [µM] | IC50 (hNav1.2; [5]) [µM] | IC50 (hNav1.2; [6]) [µM]
1 | 3-(2,6-Dimethylphenoxy)-N-(3-(trifluoromethyl)benzyl)propan-1-amine [Compound 533] | 4.3 | 2.3 | 7.1 | 6.1 | 2 | ~10.1
2 | 3-((3-(2,6-Dimethylphenoxy)propylamino)methyl)benzonitrile [Compound 524] | 3.9 | > 10 | 7.8 | 9.6 | > 10 | > 10
3 | Cc1cccc(C)c1OCCCNCc1cc(Cl)c(O)c(Cl)c1 [Compound 504, 2,6-Dichloro-4-((3-(2,6-dimethylphenoxy)propylamino)methyl)phenol] | > 10 | > 10 | > 10 | > 10 | 4.4 | > 10
4 | Cc1cccc(C)c1OCCCNCc1ccccc1 [Compound 518, N-Benzyl-3-(2,6-dimethylphenoxy)propan-1-amine] | 2.9 | 2 | 5.2 | 1.8 | 0.5 | 3.3
5 | Cc1cccc(C)c1OCCCNCc1ccc(C#N)cc1 [Compound 519, 4-((3-(2,6-Dimethylphenoxy)propylamino)methyl)benzonitrile] | 3.4 | 1.8 | 5.6 | 8.3 | 2.1 | > 10
6 | COc1ccc(CNCCCOc2c(C)cccc2C)cc1 [Compound 520, 3-(2,6-Dimethylphenoxy)-N-(4-methoxybenzyl)propan-1-amine] | 2.6 | 1.5 | 4.9 | 2.1 | 1 | 6.3
7 | Cc1cccc(C)c1OCCCNCc1ccc(F)cc1 [Compound 521, 3-(2,6-Dimethylphenoxy)-N-(4-fluorobenzyl)propan-1-amine] | 2.2 | 1.4 | 4.5 | 8.4 | 2.8 | ~10.2
8 | Cc1cccc(C)c1OCCCNCc1ccc(-c2ccccc2)cc1 [Compound 522, N-(Biphenyl-4-ylmethyl)-3-(2,6-dimethylphenoxy)propan-1-amine] | > 1000 | > 1000 | > 1000 | > 1000 | > 1000 | > 1000
9 | Cc1cccc(C)c1OCCCNCc1ccccn1 [Compound 523, 3-(2,6-Dimethylphenoxy)-N-(pyridin-2-ylmethyl)propan-1-amine] | 7.6 | 2 | > 10 | ~10 | 4.2 | > 10
10 | COc1cccc(CNCCCOc2c(C)cccc2C)c1 [Compound 525, 3-(2,6-Dimethylphenoxy)-N-(3-methoxybenzyl)propan-1-amine] | 3.2 | 1.8 | 7.9 | 1.5 | 0.4 | 4.8
11 | Cc1cccc(C)c1OCCCNCc1ccc(C(F)(F)F)cc1 [Compound 526] | 4.7 | 2.3 | 6.9 | 9.5 | 3.5 | > 10
12 | Cc1cccc(C)c1OCCCNCc1cccnc1 [Compound 528, 3-(2,6-Dimethylphenoxy)-N-(pyridin-3-ylmethyl)propan-1-amine] | 12.4 | 4.7 | 31.7 | 13.1 | 4.8 | 34.4
